Data on one compound can be found in US8222273B2, “Polymorphic form of a [1,2,4]triazole[4,3-A] pyridine derivative inflammatory diseases” (Pfizer Limited, priority 2008, dated 2012).

Common to all, as to assay type: physicochemical
A short description of data set [1]: Micronisation by jet milling.
A further data set is described as follows: Hygroscopicity.
The nature of data set [2]: Low energy screen (slurry of form B in solvents, PXRD analysis). Particulars: slurried for 2 weeks in various solvents (incl. dimethylacetamide, N-methyl-Pyrrolidine, pyridine) at 4° C., room temperature (~22° C.) and 40° C.; analysis after 2 weeks and 4 months. As to the method: A low energy screen was carried using N-[3-tert-butyl-1-(3-chloro-4-hydroxyphenyl)-1H-pyrazol-5-yl]-N′-{2-[(3-{2-[(2-hydroxyethyl)sulfanyl]phenyl}[1,2,4]triazolo[4,3-a]pyridin-6-yl)sulfanyl]benzyl}urea form B to investigate whether it is the lowest energy form of the compound. Samples of form B were slurried for 2 weeks in various solvents at 4° C., room temperature (˜22° C.) and 40° C. Analysis of wet and dried slurries was carried out at after 2 weeks and 4 months using PXRD.

A short description of data set [3]: Stability of blend with lactose monohydrate on storage. Particulars: stored under aggressive conditions of heat and humidity.
The nature of data set [4]: Hydrate screen (slurry of form B in aqueous pyridine). Conditions: slurried 2 weeks at 4° C., room temperature (~22° C.) and 40° C. in aqueous pyridine containing 50%, 75% and 90% water. As to the method:
A hydrate screen was conducted by slurrying samples of form B for 2 weeks at 4° C., room temperature (˜22° C.) and 40° C. in aqueous pyridine. The three solvent systems selected contained 50%, 75% and 90% water.

Turning to `CC(C)(C)c1cc(NC(=O)NCc2ccccc2Sc2ccc3nnc(-c4ccccc4SCCO)n3c2)n(-c2ccc(O)c(Cl)c2)n1` [form B, N-[3-tert-butyl-1-(3-chloro-4-hydroxyphenyl)-1H-pyrazol-5-yl]-N′-{2-[(3-{2-[(2-hydroxyethyl)sulfanyl]phenyl}[1,2,4]triazolo[4,3-a]pyridin-6-yl)sulfanyl]benzyl}urea], in data set [1], the “change in crystalline form on micronisation” value was “without inducing any change in crystalline form”. In “Hygroscopicity”, the hygroscopicity entry is “essentially non-hygroscopic”. Further, the “crystalline form after slurrying (PXRD of wet and dried slurries)” value in data set [2] was “remained as Form B”. Further, the “stability when blended with lactose monohydrate” value in data set [3] is on record as “good stability”. Besides, in data set [4], the “change in crystalline form” value is recorded as “No change in crystalline form” and the hydrated forms observed result is reported as “No hydrated forms were observed”.
